Results on one compound are retold here after patent US9908896B2, “P38 and JNK MAPK inhibitors for the treatment and prophylaxis of degenerative diseases of the nervous system” (ALLINKY BIOPHARMA, priority 2014, dated 2018).

The target in assay [1] is T1, recombinant activated p38alpha (Homo sapiens, UniProt Q16539).
T1 construct: purchased ProQinase
Put plainly: in vitro kinase assay p38 (ADP-Glo). The conditions noted are these: 100 μM ATP. In kind it is biochemical. The procedure: Purified recombinant activated p38alpha (10 nM)(ProQinase) was preincubated 10 minutes at 30° C. with the compound of interest at concentrations between 1 and 100 μM in duplicate in a final volume of 30 μl of kinase buffer (Hepes 60 mM pH 7.5, MgCl2 3 mM, MnCl2 3 mM, sodium orthovanadate 3 μM, DTT 1.2 mM). After preincubation, peptide substrate (SignalChem #P03-58) and ATP were added to a final concentration of 10 μM and 100 μM respectively, and then incubated 40 minutes at 30° C. for the kinase reaction. Phosphorylation was analysed with ADP-Glo™ (Promega #V9101) and emitted luminescence was measured with BMG Fluostar microplate reader.

The test system of assay [2] is TNF-α secretion by a human monocytic cell line, THP-1. Put plainly: Inhibition of TNF-α secretion by LPS-stimulated THP-1 cells (ELISA). It is filed as cell-based. The conditions noted are these: LPS-stimulated THP-1, TNF-α. The procedure: Thp1-Inhibition of TNF-α Secretion by a Human Monocytic Cell Line, THP-1
THP-1 cells, growing in log phase, were collected by centrifugation and resuspended in RPMI 1640 (Sigma Aldrich), to a final cell concentration of 2×10^6 cells/ml. Cells were plated into 24-well plates (BD Biosciences). Dilutions of compounds in dimethyl sulfoxide (DMSO) were added to the culture to a final concentration M. The final DMSO concentration was 0.5%. The cells […] suspensions were preincubated with compounds for 1 h at 37° C. in a 5% CO2 humidified atmosphere before the addition of LPS (Sigma Aldrich, L2654) to a g/ml. After that, cells were incubated for 3 h followed final concentration of […] by centrifugation to pellet cells. Cell supernatants were stored at 4° C. until human analysis for TNF-α content. TNF-α levels were determined by ELISA (TNF Biotrak, GE Healthcare) following the manufacturer's directions. The percentage inhibition was calculated for each compound concentration tested, and the IC50 was calculated for each compound.
(In an ELISA, binding on a coated surface is turned into a signal by an enzyme label.)

Assay [3] concerns Aβ25-35-induced learning deficits. The experiment in a line: Novel object recognition after i.c.v. Aβ25-35 injection. In kind it is in vivo, male Sprague Dawley rats. To be noted: 10 mg/kg i.v. once a day. The procedure: The purpose of the study was to determine whether the test compound 1 can alleviate the pathology produced in rats by the acute intracerebroventricular (i.c.v) injection of an oligomeric Aβ25-35 peptide preparation. The compound efficacy was evaluated 7 days after the peptide administration, on: • the attenuation of the Aβ25-35-induced learning deficits (recognition long-term memory: novel object recognition); • the attenuation of the Aβ25-35-induced Aβ^1-42 accumulation in the rat hippocampus. One administration procedure was examined: the compound 1 (10 mg/kg) administered intraveinously (i.v.) once a day during 9 days. […] On day 8 and 9, the recognition long-term memory of the animals was assessed using the novel object recognition (NOR) procedure. […] Each rat was placed in the open-field and the exploratory activity recorded during a 10-min duration session. The activity was analyzed using the Nosetrack® protocol (Viewpoint), in terms of number of contact with objects and duration of contacts. […] Each rat was placed again in the open-field and the exploratory activity recorded during a 10-min duration session. The activity was analyzed similarly. The preferential exploration index was calculated as the ratio of the number (or duration) of contacts with the object in position #1 over the total number for duration) of contacts with the two objects. […]

Assay [4] has as its system Aβ25-35-induced Aβ1-42 accumulation in the rat hippocampus. The experiment in a line: Aβ1-42 content in hippocampus by ELISA after i.c.v. Aβ25-35 injection. In kind it is in vivo, male Sprague Dawley rats. The conditions noted are these: 10 mg/kg i.v. once a day; after Aβ25-35 injection; vs Sc.Aβ/Veh group. The procedure: The compound efficacy was evaluated 7 days after the peptide administration, on: • the attenuation of the Aβ25-35-induced learning deficits (recognition long-term memory: novel object recognition); • the attenuation of the Aβ25-35-induced Aβ^1-42 accumulation in the rat hippocampus.
One administration procedure was examined: the compound 1 (10 mg/kg) administered intraveinously (i.v.) once a day during 9 days.
On day 10, all animals were sacrificed, the frontal cortex and hippocampi dissected out. One hippocampus was used for the ELISA analyses of Aβ1-42 content.
Samples were prepared from one hippocampus tissues of each rat per group and homogenized in an extraction buffer specific to the commercial ELISA assay kits.
After thawing, the hippocampus were homogenized in 50 mM Tris-150 mM NaCl buffer, pH 7.5, and sonicated for 20 s. After centrifugation (16,100 g for 15 min, 4° C.), supernatants were used for Aβ1-42 ELISA assay according to the manufacturer instructions. Absorbance was read at 450 nm and sample concentration was calculated using the standard curve. Results will be expressed in pg of Aβ1-42 per mg of tissue. […]
All values were expressed as mean±S.E.M. Statistical analyses were performed on the different conditions using one-way ANOVA (F value), followed by the Dunnett's post-hoc multiple comparison test. p<0.05 was considered as statistically significant.

As a reminder, the inhibition is the percentage by which the read-out fell short of the control.

T1 sequence (Q16539 whole entry): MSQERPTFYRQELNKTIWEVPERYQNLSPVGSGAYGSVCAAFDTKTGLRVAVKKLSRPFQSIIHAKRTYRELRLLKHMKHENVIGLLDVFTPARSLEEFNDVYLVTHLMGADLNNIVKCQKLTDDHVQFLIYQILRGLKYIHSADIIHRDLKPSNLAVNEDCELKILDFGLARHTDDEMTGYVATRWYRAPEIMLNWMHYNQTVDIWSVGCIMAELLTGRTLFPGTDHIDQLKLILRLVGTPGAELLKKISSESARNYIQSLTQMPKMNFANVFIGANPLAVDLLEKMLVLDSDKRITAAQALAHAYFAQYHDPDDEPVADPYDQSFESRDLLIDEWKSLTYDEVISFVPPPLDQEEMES

As to `CCCOc1ccc(Nc2nc3nonc3nc2N2CCC(Oc3ccc(Cl)cc3)CC2)cc1` [Comp 1], the inhibition at 1 µM in assay [1] (1 μM compound) amounted to 37%; in assay [2] (1 μM compound, read-out: % of inhibition at 1 μM, THP1), 51%. Moreover, the inhibition at 10 µM in assay [1] (10 μM compound) amounted to 99%; in assay [2] (10 μM compound, read-out: % of inhibition at 10 μM, THP1), 74%. Also, the “Object preference in session 2 (contacts and duration of contacts)” value in assay [3] (day 8, two identical objects, vs no preference level) is given as “higher than 50%”. In addition, in assay [3] (day 9, vs 50% level), the “Novel object preference in session 3 (number and duration of contacts)” value is listed as “alleviated the impairments”. Moreover, in assay [4], the “Aβ1-42 level in the hippocampus” value is “decreased the Aβ1-42 level increase”.
